± gives the uncertainty stated by the source.

The test system of this series is ozone. Put plainly: apparent second-order rate constant for reaction with ozone (kapp,O3) (M-1 s-1); higher = faster oxidation by ozone. The following applies: pH 7; temperature: 22 C; OH radical scavenger: tBuOH 80 mM; phosphate 4 mM. Summed up: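 The apparent second-order rate constant for reaction with ozone is a mean (± SD) from multicompound competition kinetics across qualifying competitors. Mixtures of target and competitors, each at 10 μg L–1 before ozone addition, were prepared in 4 mM phosphate buffer at pH 7 with 80 mM tert-butanol and dosed with ozone solution at compound:O3 molar ratios of 0.0025–100 and 22 ± 1 °C, in triplicate on three days. HPLC-HRMS/MS peak-area abatement in the 10–90% range was regressed against competitors of known constant, and a competitor qualified only with ≥10 points, R2 >0.9 and a slope of 0.1–10.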
Consider `CC(=O)Oc1ccc(C(c2ccc(OC(C)=O)cc2)c2ccccn2)cc1` [Bisacodyl], for which the “apparent second-order rate constant” value came to 2.6 ± 0.3.
Under `Nc1nc(NC2CC2)c2ncn(C3C=CC(CO)C3)c2n1` (stereo not given) [Abacavir] stands 8.8e+06 ± 600000; under `CC(=O)N(C)N(C(=O)C(=O)N(C)C)c1ccccc1` [Dioxypyramidon (AMDOPH)], below 0.401; under `Nc1c(I)c(N)c(I)c(C(=O)O)c1I` [3,5-Diamino-2,4,6-triiodobenzoic acid], 1.02e+07 ± 700000.
Under `CNCC(O)c1cccc(OS(=O)(=O)O)c1` (stereo not given) [Phenylephrine-3-O-sulfate] stands 2890 ± 220; under `CC(CN(C)C)CN1c2ccccc2CCc2cc(O)ccc21` (stereo not given) [2-Hydroxytrimipramine], 8.7e+07 ± 1.9e+07; under `CCOC(=O)C1=C(COCCN)NC(C)=C(C(=O)OC)C1c1ccccc1Cl` (stereo not given) [Amlodipine], 9.9e+07 ± 2.2e+07.
For `CC(C)c1c(C(=O)Nc2ccccc2)c(-c2ccccc2)c(-c2ccc(F)cc2)n1CCC(O)CC(O)CC(=O)O` (stereo not given) [Atorvastatin] the value was 1.5e+08 ± 3e+07; for `CC(=O)Nc1ccc(O)cc1` [Paracetamol], 2.4e+06 ± 180000.
For `COCCCOc1cc(CC(CC(N)C(O)CC(C(=O)NCC(C)(C)C(N)=O)C(C)C)C(C)C)ccc1OC` (stereo not given) [Aliskiren], the “apparent second-order rate constant” value stood at 22000 ± 5000.
Under `CC(C)c1nc(NS(C)(=O)=O)nc(-c2ccc(F)cc2)c1C=CC(O)CC(O)CC(=O)O` (stereo not given) [N-Desmethylrosuvastatin] stands 26000 ± 2800; under `O=C(O)c1ccccc1Nc1c(Cl)cccc1Cl` [Diclofenac carboxylic acid], 815000 ± 110000; under `Nc1ccc(S(=O)(=O)Nc2ncccn2)cc1` [Sulfadiazine], 1.23e+06 ± 110000.
Take `C[N+](C)([O-])CCC(c1ccccc1)c1ccccn1` (stereo not given) [Pheniramine-N-oxide]: the “apparent second-order rate constant” value turned out to be 2.4 ± 0.3.
As to `CNCC(c1ccc(OC)cc1)C1(O)CCCCC1` (stereo not given) [N-Desmethylvenlafaxine], the “apparent second-order rate constant” value turned out to be 993 ± 55.
Under `Cc1cccc(Nc2ccccc2C(=O)O)c1C` [Mefenamic acid] stands 1.12e+06 ± 80000; under `N#Cc1ccc2c(c1)COC2(CCCN)c1ccc(F)cc1` (stereo not given) [N-Didesmethylcitalopram], 34.3 ± 2.1.
Under `CCC(c1cccc(OS(=O)(=O)O)c1)C(C)CN(C)C` (stereo not given) [Tapentadol-O-sulfate] stands 1530 ± 150; under `O=C1CC2(CCCCC2)CN1` [Gabapentin-lactam], 1.51 ± 0.16.
For `CN1CCN2c3ncccc3Cc3ccccc3C2C1=O` (stereo not given) [1-Oxo-mirtazapine] the value was 64000 ± 14000; for `C[N+]1([O-])CCN2c3ccccc3Cc3ccccc3C2C1` (stereo not given) [Mianserin-N-oxide], 295000 ± 26000; for `Cc1cccc(C)c1NC(=O)CN1CCN(CC(O)CO)CC1` (stereo not given) [O-Desarylranolazine], 570000 ± 48000.
Take `CNCCC(c1ccccc1)c1ccccn1` (stereo not given) [N-Desmethylpheniramine]: the “apparent second-order rate constant” value is 975 ± 49.
Under `CNCC(CC(=O)O)CC(C)C` (stereo not given) [N-Methylpregabalin] stands 143 ± 7.6.
Under `COc1cc(Cc2cnc(N)nc2N)cc(OC)c1O` [4-Desmethyltrimethoprim] stands 3.6e+07 ± 86; under `NCC1(CC(=O)O)CCCCC1` [Gabapentin], 11.4 ± 1.2.
In the case of `O=C1C=CC(=C2NC=CNC2=O)C=C1` [Amoxicillin impurity F], the “apparent second-order rate constant” value came to 3.75e+06 ± 540000.
Under `CN1C2CCC1C(C(=O)O)C(OC(=O)c1ccccc1)C2` (stereo not given) [Benzoylecgonine] stands 11.3 ± 1.2; under `CNC(=C[N+](=O)[O-])NCCSCc1ccc(C[N+](C)(C)[O-])o1` [Ranitidine-N-oxide], 3.45e+06 ± 340000.
Under `CC(C)NC(=O)NS(=O)(=O)c1cnccc1Nc1cccc(CO)c1` [Hydroxytorasemide] stands 850 ± 70.
With `CCCc1nc2c(C)cc(-c3nc4ccccc4n3C)cc2n1Cc1ccc(-c2ccccc2C(=O)O)cc1` [Telmisartan], the “apparent second-order rate constant” value was 120 ± 6.1.
`Clc1cccc(N2CCNCC2)c1` [1-(3-Chlorophenyl)piperazine]: the “apparent second-order rate constant” value stood at 2.1e+06 ± 400000.
Consider `CC(=O)OCC(=O)[C@@]1(O)[C@@H](C)C[C@H]2[C@@H]3CCC4=CC(=O)C=C[C@]4(C)[C@@]3(F)[C@@H](O)C[C@@]21C` [Betamethasone-21-acetate], for which the “apparent second-order rate constant” value came out at 24.4 ± 1.3.
Under `CCOC(=O)c1c(COCCN)nc(C)c(C(=O)OC)c1-c1ccccc1Cl` [Dehydroamlodipine] stands 55 ± 2.9.
For the compound `CC(NC(C)(C)C)C(=O)c1cccc(Cl)c1` (stereo not given) [Bupropion], the “apparent second-order rate constant” value came out at 315 ± 15.

These data come from the supplement of paper PMC12490022.
